Assay results: article PMC8000084, “Peptide Dendrimers with Non-Symmetric Bola Structure Exert Long Term Effect on Glioblastoma and Neuroblastoma Cell Lines” (Biomolecules, 2021)

Columns and labels:
[1] = Ferric reducing antioxidant power (FRAP); conditions: pH 3.6, 593 nm after 15 min; Figure 6
Method: The FRAP assay was performed according to previously described method with some modifications. FRAP working solution was prepared freshly each time. The stock solution included 2.40 mL acetate buffer (300mM, pH 3.6), 0.24 mL 10 mM TPTZ solution in 40 mM HCl, and 0.24 mL of 20 mM FeCl3 × 6H2O in water. The mixture was kept away from light and warmed at 37 °C before using. Then, 240 μL sample Troloxor solvent (blank sample) standard solution was added to FRAP stock solution. The absorbance was measured at 593 nm after 15 min. Final concentration of methanolic solutions of the studied dendrimers were in range 0–24 μM and Trolox® solutions from 0 to 50 μM.All determinations were carried out in triplicate.

[2] = Cupric reducing antioxidant capacity (CUPRAC)
Method: The CUPRAC method was performed according to procedure described by Apak et al. with small modifications, which was necessary to correlate this method to other used assays. CUPRAC working solution was prepared freshly each time. The stock solution including 0.96 mL ammonium acetate buffer (1 M, pH 7), 0.96 mL 7.5 mM neocuproine solution in MeOH, and 0.96 mL of 10 mM CuCl2 in water was kept away from light. Then, 240 μL dendrimer, Trolox, or solvent (blank sample) standard solution was added to CUPRAC stock solution, and after 25 min, absorbance at 450 nm was recorded. Results were expressed as μM Trolox L^−1. All determinations were carried out in triplicate.

[3] = 5.5 μM; cited from earlier work
Method: The results of DPPH and ABTS tests for the (+)10-charged 16, 18, 20, 22, 24, and 26 bola dendrimers at three concentrations (3.78, 7.69, and 15.38 μM) are shown in Figure 5, whereas results of FRAP and CUPRAC tests are shown in Figure 6. Data include also two neutral derivatives 19 and 25 for the PABA and PAS series, respectively. Considering TEAC values, dendrimers show different level of scavenging capacity in both tests, being better scavengers of radical cations than single electron bearing neutral radicals. The highest cationic radical scavenging ability in ABTS test was found for […] ...

[4] = system: rat primary cerebellar granule cells (CGC); format: cell-based; conditions: 5 μM, 30 min exposure in Locke 25, PI staining 24 h later; Figure 3
Method: Primary CGC cultures were prepared from seven-day-old Wistar rats of both sexes as previously described. Procedures using rat pups were performed in accordance with international standards of animal care guidelines and were approved by the Local Care of Experimental Animals Committee. The culture was incubated in growth basal Eagle’s medium (Gibco, Thermo Fisher Scientific, Grand Island, NY, USA), supplemented with 10% fetal calf serum, 25 mM KCl, 4 mM glutamine, penicillin (50 U/mL), and streptomycin ([…]) (Sigma-Aldrich, Poznan, Poland). The density of the cell suspension seeded on the 24-well plates, coated with poly-L-lysine, was 1 × 10^6 cells per well. […]
Stock solutions were prepared by dissolving dendrimers in dimethylsulfoxide (DMSO) (Sigma-Aldrich, Poznan, Poland), and subsequent dilutions were made in cell medium. The effect of the dendrimers on CGC viability was assessed 24 h after a 30 min exposure of the cultures to the tested compounds using propidium iodide (PI) staining. […] Then, the cells were fixed with 80% methanol, stained with PI (0.5 µg/mL), and viable and dead neurons were counted using an Axiovert fluorescence microscope (Carl Zeiss AG, Germany). The viability of the neurons was determined as percentages of live cells in proportion to all cells.

With `Nc1ccc(S(=O)(=O)O)cc1` [p-aminobenzenesulfonic acid] as the molecule, how does the “redox potential / reducing capacity in FRAP test (in words)” value [1] read?
Its value is “insignificant”.

What about the “redox potential / reducing capacity in CUPRAC test (in words)” value ([2]; pH 7, 450 nm after 25 min, Figure 6) of the same molecule?
The value was “insignificant”.

Which “Trolox equivalence in DPPH test” value [3] does the source give for `O=C(O)/C=C/c1ccc(O)c(O)c1` [caffeic acid] here?
The value was 6–7.

What does the source list for `Nc1ccc(S(=O)(=O)NCCCCCOc2cc(OCCNS(=O)(=O)c3ccc(N)cc3)cc(C(=O)NCCNC(=O)[C@H](Cc3c[nH]c4ccccc34)NC(=O)[C@H](CCCCNC(=O)c3cc(OCCNC(=O)[C@@H](N)CCCCNC(=O)[C@@H](N)Cc4c[nH]c5ccccc45)cc(OCCNC(=O)[C@@H](N)CCCCNC(=O)[C@@H](N)Cc4c[nH]c5ccccc45)c3)NC(=O)c3cc(OCCNC(=O)[C@@H](N)CCCCNC(=O)[C@@H](N)Cc4c[nH]c5ccccc45)cc(OCCNC(=O)[C@@H](N)CCCCNC(=O)[C@@H](N)Cc4c[nH]c5ccccc45)c3)c2)cc1` [compound 26]?
viable CGC cells conserved [4]: 55–85%; enhancement of antioxidant power in transition between FRAP/CUPRAC model ([2]; 3.78 and 7.69 μM): ~11 fold
